Tests used:
hM3Dq = hM3Dq (Homo sapiens, UniProt P20309, A239G/Y149C); test: Autoradiography: displacement of [3H]clozapine from hM3Dq in mouse brain sections; format: binding; set-up: 026220; host or cells: mouse brain, dopamine D1 receptor-expressing neurons (transgene); conditions: hM3Dq and hM4Di; up to 10 nM
Description: Flash frozen tissue (both rodents and the monkey) was sectioned (20 µm) on a cryostat (Leica, Germany) and thaw mounted onto ethanol-washed glass slides. […] Slides were air dried and placed in a Hypercassette™ (Amersham Biosciences) and covered with a BAS-TR2025 Storage Phosphor Screen (FujiFilm, Japan). The slides were exposed to the screen for 5–7 days and imaged using a phosphor imager (Typhoon FLA 7000; GE Healthcare).

hM4Di = molecular target: T1, hM4Di (Homo sapiens, UniProt P08173, A203G/Y113C); test: [11C]clozapine PET occupancy in monkey expressing hM4Di in the amygdala; format: in vivo, rhesus monkey (Macaca mulatta); set-up: expressed in transfected cells; host or cells: rhesus monkey (Macaca mulatta) right amygdala, lentivirus-transduced neurons
T1 sequence (P08173 1-479 Y113C/A203G): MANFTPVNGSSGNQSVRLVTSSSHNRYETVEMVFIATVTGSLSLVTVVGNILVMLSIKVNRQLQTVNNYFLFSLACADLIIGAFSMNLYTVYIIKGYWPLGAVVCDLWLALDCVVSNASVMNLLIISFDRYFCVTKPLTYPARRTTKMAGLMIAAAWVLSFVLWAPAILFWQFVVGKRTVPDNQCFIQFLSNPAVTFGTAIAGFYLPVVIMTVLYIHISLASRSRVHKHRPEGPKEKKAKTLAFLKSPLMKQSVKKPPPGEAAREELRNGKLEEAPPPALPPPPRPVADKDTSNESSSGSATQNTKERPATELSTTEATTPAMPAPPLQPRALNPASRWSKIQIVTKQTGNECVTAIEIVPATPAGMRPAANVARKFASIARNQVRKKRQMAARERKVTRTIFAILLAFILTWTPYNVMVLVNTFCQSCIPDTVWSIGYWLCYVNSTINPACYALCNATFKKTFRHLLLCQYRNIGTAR
Procedure: Lentivirus expressing an hM4Di-CFP fusion protein under an hSyn promoter[11] with a titer of >10^9 infectious particles was loaded into a 100 µL glass syringe (Hamilton Co., MA). The 31-gauge needle of the syringe was sheathed with a silica capillary (450 µm OD) to create a step 1 mm from the base of the aperture. The syringe was mounted in a Nanomite pump (Harvard Apparatus, Cambridge, MA). The needle was lowered through the incision in the dura mater to each of the pre-calculated target sites and 10 or 20 µL was infused at a rate of 1 µL min^−1. Each monkey received a total of between 10 and 12 injections (for a total injection volume of 120–240 µL). Post-infusion, the needle was left in situ for 10 min after each injection to allow pressure from the infusate to dissipate. The needle was then slowly removed. At the completion of the injection series the soft tissues were sutured together in anatomical layers.
(§1) All macaque studies were acquired dynamically on the Focus 220 PET scanner (Siemens Medical Solutions, Knoxville, TN). The Focus 220 is a dedicated pre-clinical scanner with a transaxial FOV of 19 cm and an axial FOV of 7.5 cm. Image resolution is <2 mm within the central 5 cm FOV.
(§2) After initial evaluation the monkey was sedated with ketamine (10 mg kg^−1) followed by ketoprofen (as an analgesic) and glycopyrrolate (for salvia reduction), all weight dependent IM injections. The monkey would then be placed in the supine position, intubated with a tracheal tube. Anesthesia was maintained by 1–3.5% isoflurane and oxygen, the monkey’s head was positioned and immobilized for optimal positioning of the brain and moved into the scanner. A 10-min transmission scan using a Co-57-point source for attenuation correction was performed. One iv was inserted, if possible, in the right arm and one in the right leg for injection of tracer and blocking agent. The monkey was always monitored while anesthetized. HR, BP, O2 saturation, RR, three lead ECG, rectal temperature was documented every 15 min.
Arterial blood sampling was acquired throughout the study using an indwelling femoral port. The first 2 min samples were collected every 15 s then at 3, 5, 10, 30, 60, 90, and 120 min post tracer injection. All scans were acquired for 120 min using list mode acquisition.
Scan data were histogrammed into 33 frames (6 × 30 s, 3 × 1 min, 2 × 2 min, and 22 × 5 min). Reconstruction was performed by Filtered Back Projection with scatter correction. After completion of the last study of the day, isoflurane was cut off. The monkey was gradually awakened, moved to the housing facility and fully recovered.

endogenous binding sites = format: in vivo; conditions: monkey
Procedure: as §1, §2
Arterial blood sampling was acquired throughout the study using an indwelling femoral port. The first 2 min samples were collected every 15 s then at 3, 5, 10, 30, 60, 90, and 120 min post tracer injection. All scans were acquired for 120 min using list mode acquisition. […]
To determine the arterial input function for the radiotracers injected in rhesus monkeys radioligand concentrations in the arterial plasma were corrected by the unchanged parent fraction. […] The unchanged plasma parent fractions were determined by radio-HPLC on an X-terra® C18 column (10 µm, 7.8 mm × 300 mm, Waters Corp., Milford, MA), and eluted with MeOH:H2O:Et3N (80:20:0.1; by volume) at an isocratic flow rate of 4.0 mL min^−1. Eluates were monitored with an in-line flow-through NaI(Tl) scintillation detector (Bioscan). Data were stored and analyzed on a PC using the software “Bio-ChromeLite”. […] Plasma free fraction was determined according to our previous methods.

Sequence of hM3Dq (P20309 whole entry Y149C/A239G): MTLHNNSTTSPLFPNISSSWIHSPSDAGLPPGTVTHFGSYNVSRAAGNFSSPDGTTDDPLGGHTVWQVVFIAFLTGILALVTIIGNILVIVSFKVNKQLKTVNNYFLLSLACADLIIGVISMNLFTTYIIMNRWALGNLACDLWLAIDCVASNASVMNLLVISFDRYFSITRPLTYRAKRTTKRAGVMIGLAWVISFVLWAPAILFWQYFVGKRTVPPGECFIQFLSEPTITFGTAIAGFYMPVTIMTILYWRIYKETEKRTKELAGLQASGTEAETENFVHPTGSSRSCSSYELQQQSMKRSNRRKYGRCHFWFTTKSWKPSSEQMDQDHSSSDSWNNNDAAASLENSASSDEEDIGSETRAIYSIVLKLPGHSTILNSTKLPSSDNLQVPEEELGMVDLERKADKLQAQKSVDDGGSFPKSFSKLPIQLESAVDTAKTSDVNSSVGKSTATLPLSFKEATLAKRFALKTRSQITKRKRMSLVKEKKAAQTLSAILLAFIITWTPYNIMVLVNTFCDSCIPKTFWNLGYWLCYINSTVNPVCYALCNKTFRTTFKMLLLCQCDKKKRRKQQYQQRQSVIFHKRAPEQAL

CCN1CCN(C2=Nc3cc(Cl)ccc3Nc3c(F)cccc32)CC1 [JHU37160, 8-Chloro-11-(4-ethylpiperazin-1-yl)-4-fluoro-5H-dibenzo[b,e][1,4]diazepine]
in situ [3H]clozapine displacement in brain tissue from WT and D1-DREADD mice (hM3Dq): selective [^3H]clozapine displacement from DREADDs and not from other clozapine-binding sites
[11C]clozapine displacement at hM4Di expressed in the amygdala (hM4Di; 0.1 mg kg-1 (lesser extent 0.01 mg kg-1)): produced [^11C]clozapine DREADD displacement at hM4Di
[11C]clozapine binding after drug, R_Amygdala (hM4Di; 0.1 mg kg-1, hM4Di-expressing region): 0.6176
[11C]clozapine binding after drug, L_Amygdala (endogenous binding sites; 0.1 mg kg-1): 0.2865
[11C]clozapine binding after drug, PFC (endogenous binding sites; 0.1 mg kg-1): 0.3429

c1ccc2c(c1)N=C(N1CCNCC1)c1ccccc1N2 [C21]
in vivo DREADD occupancy (hM4Di; 1 mg/kg IV): no measurable occupancy
hM4Di occupancy (hM4Di; 10 mg/kg): ~ 50%
off-target effects (endogenous binding sites; 10 mg/kg): extensive displacement of [^11C]clozapine binding at endogenous binding sites and non-specific effects

CCN1CCN(C2=Nc3cc(Cl)ccc3Nc3cccc(F)c32)CC1 [JHU37152, 8-Chloro-11-(4-ethylpiperazin-1-yl)-1-fluoro-5H-dibenzo[b,e][1,4]diazepine]
in situ [3H]clozapine displacement in brain tissue from WT and D1-DREADD mice (hM3Dq): selective [^3H]clozapine displacement from DREADDs and not from other clozapine-binding sites

— article PMC6788984, “High-potency ligands for DREADD imaging and activation in rodents and monkeys” (Nature Communications, 2019)
